Test results reported in patent publication US10940216B2, “Cyclic peptides with enhanced nerve-binding selectively, nanoparticles bound with said cyclic peptides, and use of same for real-time in vivo nerve tissue imaging” (Memorial Sloan Kettering Cancer Center, priority 2014, dated 2021).
Ends that are not written are not given here.

What was measured:
[1] = Characterization of NBP-Cy5 conjugates and linear NBP-C′ dots by fluorescence correlation spectroscopy (FCS); type: physicochemical
Procedure: Similarly, cyclic peptide(s) can be bound to nanoparticles for improved quantum enhancement and FCS brightness over the non-bound cyclic peptide.
Measurements were determined from fluorescence correlation spectroscopy (FCS).
The linear nerve binding polypeptide (NBP) NP41 was incorporated onto C′ dots using a PEG linker moiety.

[2] = tested on: sciatic nerve; test: In vivo optical imaging of sciatic nerve and adjacent muscle after iv injection of peptide-dye conjugates; conditions: nude mouse; for fluorescence signal at 30 min as percentage of post-injection/initial signal: 150 nmole iv
Procedure: FIGS. 13A-13E show in vivo time-dependent uptake from sciatic nerve and muscle post-iv injection of 17 AA cyclic peptide-dye conjugates using optical imaging. 17 AA cyclic peptide-dye conjugates (Cy5 labeled) were injected intravenously (400 nmole) into the tail veins of nude mouse prior to surgical exposure and imaging of sciatic nerves and adjacent muscle using a Zeiss Lumar stereomicroscope (0.8× objective) with fluorescence imaging capabilities. Pre- and serial post injection (p.i.) images (bright field, fluorescent) were acquired at 8 times points from 15 min to 240 min p.i. Bars indicate mean+/−standard deviation. N=5 per group. Each replicate is from one biological experiment, quantified with five independent fields of view. Region of interest (ROI) analysis was performed over nerve and muscle regions to assess time-dependent signal changes. FIGS. 13A-13E show the absolute and relative fluorescence signal (e.g., percentage of the initial fluorescence signal acquired at 15 min p.i.) of nerves (FIGS. 13A and […]) and adjacent muscle (FIGS. 13B and 13D), respectively.
FIGS. 14A and 14B show in vivo time-dependent uptake from sciatic nerve and muscle post-iv injection of 17 AA linear peptide-dye conjugates using optical imaging. 17 AA linear peptide-dye conjugates (Cy5 labeled) were injected intravenously (150 nmole) into the tail veins of nude mouse prior to surgical exposure and imaging of sciatic nerves and adjacent muscle using a Zeiss Lumar stereomicroscope (0.8× objective) with fluorescence imaging capabilities. Pre- and serial post injection (p.i.) images (bright field, fluorescent) were acquired at 6 times points (15 min-150 min) p.i. Bars indicate mean+/−standard deviation. N=5 per group.
FIGS. 16A-16E show in vivo time-dependent uptake from sciatic nerve and muscle post-iv injection of 17 AA cyclic peptide-dye conjugates using optical imaging. 17 AA cyclic peptide-dye conjugates (Cy5 labeled) were injected intravenously (150 nmole) into the tail veins of nude mouse prior to surgical exposure and imaging of sciatic nerves and adjacent muscle using a Zeiss Lumar stereomicroscope (0.8× objective) with fluorescence imaging capabilities. Pre- and serial post injection (p.i.) images (bright field, fluorescent) were acquired at 6 time points (15 min-150 min) p.i. Bars indicate mean+/−standard deviation. N=5 per group. Each replicate is from one biological experiment, quantified with five independent fields of view. Region of interest (ROI) analysis was performed over nerve and muscle regions to assess time-dependent signal changes. FIGS. 16A-16D show the absolute and relative fluorescence signal (percentage of the initial fluorescence signal acquired at 15 min p.i.) of nerves (FIGS. 16A and 16C) and adjacent muscle (FIGS. 16B and 16D), respectively.

Row | Compound | # of Cy5 per particles [1] | # of NBP per particles [1] | Hydrodynamic Diameter [1] [nm] | PCS Brightness [1] [kHz] | Quantum Enhancement [1] | fluorescence signal at 30 min as percentage of post-injection/initial signal ([2]; listed as 17 AA linear peptide-dye conjugates) | fluorescence signal at 30 min as percentage of post-injection/initial signal ([2]; listed as linear peptide) [%] | duration of detectable signal after administration (in words) ([2]; iv) | nerve-to-muscle or contrast ratios over time (in words) ([2]; iv, listed as linear peptide) | nerve-to-muscle or contrast ratios over time (in words) ([2]; iv, listed as linear peptide-dye conjugate)
1 | Ac-SHSNTQTLAKAPEHTGC (also: Cy5 label, site not given here) [LinearNBP-Cy5] | 1 | 1 | 2.4 | 8.9 | 0.9 | about 15% | 10 | barely perceptible thereafter | does not demonstrate as high ratios | roughly equivalent over the first 30 min
2 | CCN1/C(=C/C=C/C=C/C2=[N+](CCCCCC(=O)O)c3ccc(S(=O)(=O)O)cc3C2(C)C)C(C)(C)c2cc(S(=O)(=O)[O-])ccc21 [Cy5] | 1 |  | 1.4 | 9.2 | 1 |  |  |  |  | 
